Test results reported in patent publication US12565665B2, “Compositions and methods for controlled mRNA translation and stability” (TRUSTEES OF BOSTON UNIVERSITY, priority 2022, dated 2026).

How the values were obtained:
UAG-MS2 editing reporter [1] = experiment: Stop codon editing reporter (mCherry / mNeonGreen) co-transfected with ADAR variants, fluorescence microscopy / ImageJ quantification; format: cell-based, human; conditions: for ADAR editing of the reporter construct depending on fusion position of BAD / Bcl-xL: 50 ng reporter and 50 ng ADAR construct, with or without A-1331852
Bcl-xL = experiment: Drug response titration of Bad-BclxL iADAR system using A-1331852; format: cell-based, human; conditions: ADAR-Bad-BclxL variant with point mutation F121L, drug added at transfection
UAG-MS2 editing reporter [2] = experiment: Stop codon editing reporter (mCherry / mNeonGreen) co-transfected with ADAR variants, flow cytometry (median mNeonGreen to mCherry); format: cell-based, human; conditions: for ADAR activity on mCherry-mNeonGreen reporter, no TEV protease: SpyTag / SpyCatcher ADAR variants
Excerpt: For the reporter system, the inventors used the fluorescent protein-epitope tag tandem fusions of mCherry-FLAG and HA-mNeonGreen as the upstream and downstream coding regions. Without DD editing activity, translation is terminated after mCherry-FLAG. Coexpression with MCP-ADAR2-DD was hypothesized to lead to binding of MCP-DD, stop codon UAG editing to UIG, and expression of mNeonGreen (FIG. 1B).
HEK 293 FT cells were co-transfected with plasmids expressing the reporter containing 2 UAG stop codons in the hairpin and a pcDNA3 construct encoding a fusion protein composed of MCP, ADAR2-DD (E488Q), and TagBFP.
Two days later, fluorescence microscopy images were taken of the cell populations. […] The inventors repeated the experiment and analyzed the samples by flow-cytometry.
The inventors transiently co-transfected HEK 293 FT cells with the mCherry-mNeonGreen reporter, MCP-ADAR2-DD variants containing different configurations of ALFA-tag insertions and NbALFA fusions, and uncaging constructs containing miRFP670 fused to ALFA. Without wishing to be bound by theory, it was hypothesized that the intramolecular interaction would inhibit the ADAR2-DD, but that the ALFA tag on the miRFP670 would displace the lower strength ALFA variants (PE and 78), and perhaps at high enough concentrations displace the intramolecular ALFA, and lead to increased editing.
The inventors then made an ADAR-DD variant with an inserted TEV protease cut site (amino acids ENLYFQG, SEQ ID NO: 286) between the C-terminus of ADAR2-DD and the N-terminus of SpyCatcher (FIG. 5C). The inventors co-transfected HEK 293 FT cells with the reporter construct, the ADAR-DD TEVcs variant, and the TEV protease and 48 hours later analyzed the transfected cells via flow cytometry (FIG. 5D-5E).
Mutated versions were then cloned and co-transfected with an editing reporter in the absence and presence of A-1331852, and absolute background and fold change upon drug addition were determined by flow cytometry (see e.g., FIG. 22d and table 11).

AlfaNb = conditions: cited from earlier work
AUA reporter = experiment: Creation of a START codon (AUA to AUI), EGFPd2/dTomato reporter, flow cytometry; format: cell-based, human; conditions: 48 hours post-transfection, n=3
Excerpt: To test this, an ADAR substrate was designed composed of a dsRNA hairpin containing both an AUA-codon with a mismatch at the second adenine to promote specific deamination to AUI (as opposed to IUA or IUI) and an MS2 operator motif (see e.g., FIG. 26b). The design of one large dsRNA hairpin was chosen to promote correct folding of RNA secondary structures. Previous studies have shown that MS2 operators in the 5′UTR of eukaryotic mRNA can lead to decreased translational efficiency when co-expressed with its corresponding coat protein (MS2 coat protein, or MCP), so high and low affinity variants of the MS2 operator (called here MS2-C and MS2-A respectively for the base at the stem loop) were tested with the idea that the lower affinity MS2-A loop would be less likely to inhibit translation by coat protein alone. As positive controls, the same loops were also designed with the correct AUG start codon.
These designs were cloned into pcDNA3 vectors containing a bidirectional CMV promoter driving constitutive dTomato and EGFPd2 (see e.g., FIG. 26c). The S′UTR and start codon of EGFPd2 were replaced with the editable start codon designs so the translational efficiency could be measured by looking at the EGFPd2 fluorescence relative to dTomato when co-expressed with MCP-ADAR. In this construct, if the correct start codon is skipped, the next AUG codon leads to a short, out of frame translation product.
HEK293FT cells were co-transfected with each of the reporter constructs (MS2-C w/ AUG start, MS2-C w/ AUA start, MS2-A w/ AUG start, and MS2-A w/ AUA start) and either filler DNA, inactivated ADAR2-DD (E396A) fused to MCP (MCP-dADAR), or active ADAR2-DD (E488Q) fused to MCP (MCP-ADAR). 48 hours post-transfection, cells were lifted and analyzed by flow cytometry. Transfected cells were gated by dTomato, and the median EGFPd2-to-dTomato ratio for the population was calculated per replicate (n=3) by FLOWJO. 2-Way ANOVA was performed to determine significance.

GFP-GPI reporter = experiment: AUA to AUI editing creating upstream in-frame signal sequence and HA tag, live imaging and HA staining; format: cell-based, human
Excerpt: To test this, a reporter construct was designed that contained: an MS2-A editable AUA start codon upstream of the murine IgGκ signal sequence and HA epitope tag (SS-HA), an in frame AUG start codon, GFP, and the glycosylphosphatidylinositol (GPI) anchor sequence from Thymocyte differentiation antigen 1 (GPI in diagram) (see e.g., FIG. 27a). With this reporter, in the absence of editing, the majority of the translated product will be from the AUG codon directly upstream of GFP. This will lead to the translation product residing in the cytoplasm with a non-functional GPI anchor (as this post-translational modification (PTM) must occur in the endoplasmic reticulum (ER) lumen). Upon ADAR editing of the upstream AUA to AUI, translation will initiate upstream of the signal sequence, leading to co-translational translocation of HA-GFP-GPI into the ER lumen, the addition of the GPI anchor PTM, and presentation of HA-GFP on the plasma membrane (see e.g., FIG. 27b). With this construct, the editing can be monitored by either by microscopy (looking for ER & plasma membrane localization) or directly by immunostaining for the HA-tag.
HEK cells were co-transfected with the GFP-GPI reporter and either filler DNA, MCP-dADAR, or MCP-ADAR. A GFP-GPI with a functional start codon before the secretion signal was also transfected as a positive control (GFP-GPI Control). One day after transfection, HEK cells were imaged live, and then fixed and stained for HA tag with a primary anti-HA antibody and a secondary antibody that was conjugated to ALEXAFLUOR 647 (AF647).

editable AUG reporters = experiment: Destruction of an AUG start codon to IUG, EGFPd2/dTomato reporter, flow cytometry; format: cell-based, human; conditions: 48 hours post-transfection; n=3
Excerpt: To test this, an ADAR substrate was designed similar to the substrates tested above, but with an AUG codon in a dsRNA hairpin with a mismatch to promote the deamination of the correct adenine (see e.g., FIG. 28b). This scheme was similarly tested with both the high affinity MS2-C and lower affinity MS2-A variants by cloning these substrates into a pcDNA3 vector with a bidirectional CMV driving the expression of dTomato and EGFPd2 (see e.g., FIG. 28c).
HEK cells were co-transfected with the two different reporter constructs (MS2-C and MS2-A) and cither filler DNA, MCP-dADAR, or MCP-ADAR. 48 hours post-transfection, cells were lifted and analyzed by flow cytometry. Transfected cells were gated by dTomato, and the median EGFPd2-to-dTomato ratio for the population was calculated per replicate (n=3) by FLOWJO. 2-Way ANOVA was performed to determine significance.

Sequence of AlfaNb (as listed by the source): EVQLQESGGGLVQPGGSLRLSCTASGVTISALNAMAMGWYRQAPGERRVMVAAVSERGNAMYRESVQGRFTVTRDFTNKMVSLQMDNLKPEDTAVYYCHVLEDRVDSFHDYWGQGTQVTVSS

## MCP-linker-BclxL-linker-ADAR2-DDN-Bad(L)-ADAR2(E488Q)-DDC-TagBFP [BclxL-nDD-BAD-cDD]
UAG-MS2 editing reporter [1]; HEK cells, two days, n=1
  ADAR editing of the reporter construct depending on fusion position of BAD / Bcl-xL: did not inhibit the enzymatic activity

## MCP-linker-BAD-ADAR2-DD(E488Q)-Bcl-xL-TagBFP [BAD-DD-BclxL]
UAG-MS2 editing reporter [1]; HEK cells, two days, n=1
  ADAR editing of the reporter construct depending on fusion position of BAD / Bcl-xL: drug-dependent allostery
UAG-MS2 editing reporter [1]; HEK cells, absence or presence of A-1331852, two days, n=1
  fold change with A-1331852, N-terminal BAD fusion system: 5.9 ×
UAG-MS2 editing reporter [1]; N-terminal BAD, C-terminal Bcl-xL, n=1
  background in the absence of drug compared with the loop insertion conformation: significantly higher

## Cc1c(-c2ccc(N3CCc4cccc(C(=O)Nc5nc6ccccc6s5)c4C3)nc2C(=O)O)cnn1CC12CC3CC(CC(C3)C1)C2 [A-1331852]
Bcl-xL; flow cytometry 48 hours
  concentration at which activation maxed out: ~30 nM
Bcl-xL; flow cytometry 48 hours after transfection, n=3
  concentration at which the iADAR activated (as low as): 1 nM

## MCP-linker-ADAR2-DDN-SpyTag- ADAR2(E488Q)-DDC-TagBFP [SpyTag variant]
UAG-MS2 editing reporter [2]; flow cytometry
  ADAR activity on mCherry-mNeonGreen reporter, no TEV protease: activity was seen

## lower affinity ALFA epitope variant, GRLEEELRRRLSP, SEQ ID NO: 86 [ALFA-PE]
AlfaNb
  reported interaction strength with AlfaNb: nanomolar

## MCP-linker-BAD-ADAR2-DD(E488Q)-TagBFP [BAD-DD]
UAG-MS2 editing reporter [1]; HEK cells, two days, n=1
  ADAR editing of the reporter construct depending on fusion position of BAD / Bcl-xL: did not affect ADAR editing of the reporter construct

## MCP-linker-ADAR2(E396A & E488Q)-TagBFP [MCP-dADAR]
UAG-MS2 editing reporter [2]; 1 μM vs 0 μM A-1331852, flow cytometry, n=1
  Fold Change: 0.9649
UAG-MS2 editing reporter [2]; HEK cells co-transfected with ADAR reporter and ADAR variant, 0 μM A-1331852, two days after transfection, gated by BFP, n=1
  Flow Cytometry Values, 0 μM (median of the ratio of mNeonGreen to mCherry): 0.0049
UAG-MS2 editing reporter [2]; HEK cells co-transfected with ADAR reporter and ADAR variant, 1 μM A-1331852, two days after transfection, gated by BFP, n=1
  Flow Cytometry Values, 1 μM (median of the ratio of mNeonGreen to mCherry): 0.0047
UAG-MS2 editing reporter [1]; HEK 293 FT cells co-transfected with reporter containing 2 UAG stop codons in the hairpin, two days after transfection
  mNeonGreen expression, fluorescence microscopy: minimal mNeonGreen fluorescence
AUA reporter
  effect on translational efficiency from a native AUG start codon, MS2-A substrate: more modest negative effect on translational efficiency
AUA reporter; 2-Way ANOVA
  relative fluorescence (EGFPd2-to-dTomato) of MS2-C reporters compared with filler DNA (NT): significantly decreased the relative fluorescence
GFP-GPI reporter; fixed, permeabilized, anti-HA and AF647 secondary
  HA tag staining of cells with AUA construct: not much staining
GFP-GPI reporter; one day after transfection
  cellular distribution of GFP from AUA-SS-GFP-GPI, live imaging: more cytoplasmic distribution
Editable AUG reporters
  translational efficiency, MS2-A based AUG construct: significant decrease in translational efficiency

## ALFA epitope tag, SRLEEELRRRLTE, SEQ ID NO: 85
AlfaNb
  reported interaction strength with AlfaNb: picomolar

## MCP-linker-ADAR2-DDN-SpyTag- ADAR2(E488Q)-DDC-TEVcs-SpyCatcher-TagBFP [ADAR-DD TEVcs variant]
UAG-MS2 editing reporter [2]; co-transfected TEV protease, flow cytometry 48 hours later
  induced ADAR activity with TEV protease: close to that of the non-engineered ADAR2-DD
UAG-MS2 editing reporter [2]; co-transfected with or without TEV protease, flow cytometry 48 hours later
  dependence of ADAR activity on TEV protease: only active with the addition of TEV protease

## MCP-linker-ADAR2-DDN-SpyTag- ADAR2(E488Q)-DDC-TagBFP -P2A-T2A-SpyCatcher [T2A-SpyCatcher variant]
UAG-MS2 editing reporter [2]; flow cytometry
  ADAR activity on mCherry-mNeonGreen reporter, no TEV protease: activity was seen
